# Test results taken from patent publication US7968526B2, “Antisense oligonucleotides directed to ribonucleotide reductase R2 and uses thereof in the treatment of cancer” (Lorus Therapeutics Inc., priority 2003, dated 2011).
# Assays:
# [1] = tested on: Human taxol-resistant promyelocytic leukaemia cells (HL-60); assay: HL-60 taxol-resistant promyelocytic leukaemia tumour in SCID mice (2.7); type: in vivo, human cells in mice; conditions: SEQ ID NO:1 10 mg/kg i.v. every other day
# Protocol: BxPC-3 is a gemcitabine resistant call line. […] Gemcitabine was administered intravenously every three days at a dose of 100 mg/kg. Antitumour activities were estimated by the inhibition of tumour volume, which was measured with caliper. Each point represents mean tumour volume calculated from 10 animals per experimental group. […] Hela S3 is a hydroxyurea resistant cell line. […] Hydroxyurea was administered intraperitoneally every day at a dose of 250 mg/kg for 10 days. Cisplatin was administered intravenously once a week for three weeks at a dose of 4 mg/kg. Antitumour activities were estimated by the inhibition of tumour volume, which was measured with caliper. Each point represents mean tumour volume calculated from 10 animals per experimental group. […] Cisplatin was administered intravenously once a week for three weeks at a dose of 4 mg/kg. Taxol was administered intravenously once a week for three weeks at a dose of 10 mg/kg. Antitumour activities were estimated by the inhibition of tumour volume, which was measured with caliper. Each point represents mean tumour volume calculated from 10 animals per experimental group. […] Taxol was administered i.p. once a week at a dose of 10 mg/kg. Antitumour activities were estimated by the inhibition of tumour volume (FIG. 12A), which was measured with calipers. Each point represents mean tumour volume calculated from 10 animals per experimental group. Animals were sacrificed and tumour weights taken at the end of the study (FIG. 12C). […] Cisplatin was administered intravenously once a week for four weeks at a dose of 4 mg/kg. Taxol was administered intravenously once a week for four weeks at a dose of 20 mg/kg. Antitumour activities were estimated by the inhibition of tumour volume, which was measured with caliper. Each point represents mean tumour volume calculated from 9-10 animals per experimental group. […] Cisplatin was administered intravenously once a week for four weeks at a dose of 4 mg/kg. Antitumour activities were estimated by the inhibition of tumour volume, which was measured with caliper. Each point represents mean tumour volume calculated from 10 animals per experimental group. At the end of the study the animals were sacrificed and tumours weighed. […] Taxol was administered i.p. once a week at a dose of 10 mg/kg. Anti-tumour activity was estimated by the inhibition of tumour volume, which was measured with caliper. Each point represents mean tumour volume calculated from 10 animals per experimental group. […] Antitumour activities were estimated by the inhibition of tumour volume, which was measured with caliper. Each point represents mean tumour volume calculated from 10 animals per experimental group. Tumour weights were measured after animals were sacrificed at the end of the treatment. […]
# [2] = Phase I study of SEQ ID NO:1: pharmacokinetics; conditions: patients
# Protocol: On Day 1 a heparinized blood sample was collected at baseline and then at 1, 2, 3, 4 and 6 hours after start of infusion. On Days 8 and 15, a single heparinized sample was taken. On Day 22 a heparinized blood sample was collected prior to the end of infusion and at 0.25, 0.5, 1, 2, 4 and 6 hours following the end of infusion. Plasma was decanted and stored at −70° C.
# Pharmacokinetic parameters were assessed. SEQ ID NO:1 was administered using a portable infusion pump in cycles of 21 days CVI followed by one week of rest. […] Doses were doubled in cohorts of 1-3 patients until the appearance of Gr 1 toxicity, with subsequent escalation of 20-30% in cohorts of 3 patients. DLT was defined as Gr 4 neutropenia lasting 3 days or with fever; Gr 4 thrombocytopenia (T) or Gr 3 T with Gr 1 bleeding; or Gr 3 non-hematologic toxicity.
# [3] = tested on: Caki-1 human kidney cancer cells; assay: Caki-1 kidney tumour growth in CD-1 nude mice (3.8); type: in vivo, human cells in mice
# Protocol: Treatments lasted for 14 days thereafter. Antitumour activities were estimated by the inhibition of tumour volume, which was measured with a caliper on four different occasions over the treatment period. Each point represents mean tumour volume calculated from 5 animals per experimental group. […] Control animals (control) received saline alone for the same period. At the end of the treatments, the animals were sacrificed, tumours were excised and their weights were measured. Each bar represents mean tumour weight calculated from 6 animals per experimental group. […] Treatments lasted for 24 days thereafter. Antitumour activities were estimated by the inhibition of tumour volume, which was measured with a caliper at two-day intervals over the treatment period. Each point represents mean tumour volume calculated from 4 animals per experimental group. […] Treatments lasted for 24 days thereafter. Antitumour activities were estimated by the inhibition of tumour volume, which was measured with a caliper at two-day intervals over the treatment period. Each point represents mean tumour volume calculated from 4 animals per experimental group. […] Each point represents mean tumour volume calculated from 5 animals per experimental group. […] Antitumour activities were estimated by the inhibition of tumour volume, which was measured with a caliper on four different occasions over 16-day period. […]
substance,measurement,setting,value
"5′-GGCTAAATCGCTCCACCAAG-3′ (all phosphorothioate, sugars by position and methylation of C not given here) [SEQ ID NO: 1, fully phosphorothioated antisense oligonucleotide that hybridizes to the coding region of R2 mRNA]",Tumour weight as % of saline control,"[1]; HL-60 (leukemia), Taxol resistant, SCID, Taxol 10 mg/kg i.p. weekly",38%
same,Antitumour effect (FIG. 15),"[1]; HL-60 taxol-resistant, SCID mice, taxol 10 mg/kg i.p. weekly",significant reduction of tumour weight compared to saline control
same,"AUC, mean (coefficient of variation)",[2]; 37 mg/m^2/day CVI,7.54 (141)^$ μg · hr/ml
same,Clearance,[2]; 37 mg/m^2/day CVI,595 L/m^2/day
same,"Cmax, mean (coefficient of variation)",[2]; 37 mg/m^2/day CVI,0.09 (141) μg/ml
same,"Css, mean (coefficient of variation)",[2]; 37 mg/m^2/day CVI,0.03 (141) μg/ml
same,"AUC, mean (coefficient of variation)",[2]; 74 mg/m^2/day CVI,15.5 (141) μg · hr/ml
same,"Cmax, mean (coefficient of variation)",[2]; 74 mg/m^2/day CVI,0.61 (141) μg/ml
same,"AUC, mean (coefficient of variation)",[2]; 148 mg/m^2/day CVI,426 (87) μg · hr/ml
same,"Clearance, mean (coefficient of variation)",[2]; 148 mg/m^2/day CVI,244 (90) L/m^2/day
same,"Cmax, mean (coefficient of variation)",[2]; 148 mg/m^2/day CVI,2.2 (41) μg/ml
same,"Css, mean (coefficient of variation)",[2]; 148 mg/m^2/day CVI,0.77 (94) μg/ml
same,"T1/2, mean (coefficient of variation)",[2]; 148 mg/m^2/day CVI,0.79 (25) hr
same,"AUC, mean (coefficient of variation)",[2]; 185 mg/m^2/day CVI,340 (67) μg · hr/ml
same,"Clearance, mean (coefficient of variation)",[2]; 185 mg/m^2/day CVI,558 (119) L/m^2/day
same,"Cmax, mean (coefficient of variation)",[2]; 185 mg/m^2/day CVI,2.15 (57) μg/ml
same,"Css, mean (coefficient of variation)",[2]; 185 mg/m^2/day CVI,0.63 (98) μg/ml
same,"T1/2, mean (coefficient of variation)",[2]; 185 mg/m^2/day CVI,2.74 (171) hr
same,"AUC, mean (coefficient of variation)",[2]; 222 mg/m^2/day CVI,380 (94) μg · hr/ml
same,"Clearance, mean (coefficient of variation)",[2]; 222 mg/m^2/day CVI,483 (161) L/m^2/day
same,"Cmax, mean (coefficient of variation)",[2]; 222 mg/m^2/day CVI,2.98 (99) μg/ml
same,"Css, mean (coefficient of variation)",[2]; 222 mg/m^2/day CVI,1.24 (87) μg/ml
same,"T1/2, mean (coefficient of variation)",[2]; 222 mg/m^2/day CVI,1.43 (46) hr
same,mean steady-state plasma concentration,"[2]; phase II dose (185 mg/m^2/day), preliminary analysis",0.6 µg/mL
same,t1/2,[2]; preliminary analysis,about 2 hrs
same,"Inhibitory effect on tumour growth (tumour volume, FIG. 21A)","[3]; Caki-1, CD-1 nude mice, 10 mg/kg i.v. every other day to day 36","powerful inhibitory effects on the growth of human renal carcinoma cells, resulting in total regression of the tumours in three mice"
same,Inhibition of tumour size,[3]; Human Renal Carcinoma (first entry of Table 5),Approximately 90% inhibition of tumour size
